Measurements as given in PMC6920847, “2-Hydroxy-N-phenylbenzamides and Their Esters Inhibit Acetylcholinesterase and Butyrylcholinesterase” (Biomolecules, 2019).
Values joined by “and” are separate entries in the source; they are usually repeats but may differ in a detail not shown here. Equal values may be shown once. “Also recorded” adds a separate entry of the source. Read-outs that look alike come from different tables or passages of the source.

Tests used:
[1] = biological target: T1, AChE from electric eel (EeAChE) (Electrophorus electricus, UniProt O42275); test: Inhibition of AChE, modified Ellman's spectrophotometric method; type: biochemical, electric eel (Electrophorus electricus L.)
T1 construct: Acetylcholinesterase was obtained from electric eel (Electrophorus electricus L.); purchased Sigma-Aldrich (Prague, Czech Republic); host or cells: electric eel (natural source)
Procedure: (§1) The IC50 values were determined using the spectrophotometric Ellman’s method modified according to Zdražilová et al., which is a simple, rapid and direct method to determine the SH and -S-S- group content in proteins. This method is widely used for the screening of the efficiency of cholinesterases inhibitors. The enzymatic activity is measured indirectly by quantifying the concentration of the 5-thio-2-nitrobenzoic acid ion formed in the reaction between the thiol reagent 5,5′-dithio-bis(2-nitrobenzoic acid) and thiocholine, a product of substrate hydrolysis (i.e., acetylthiocholine; ATCH) by cholinesterases.
(§2) The enzyme activity in final reaction mixture (2000 µL) was 0.2 U/mL, concentration of acetylthiocholine (or butyrylthiocholine, BTCH) 40 µM and concentration of 5,5′-dithio-bis(2-nitrobenzoic acid) 0.1 mM for all reactions. The tested compounds were dissolved in DMSO and then diluted in demineralized water to the concentration of 1 µM. […] All measurements were carried in triplicate and the average values of reaction rate (v0-uninhibited reaction, vi-inhibited reaction) were used for construction of the dependence v0/vi vs. concentration of inhibitor. From obtained equation of regression curve, the value of IC50 was calculated (based on the definition of IC50).
(§3) Acetylcholinesterase was obtained from electric eel (Electrophorus electricus L.) and butyrylcholinesterase was from an equine serum.
(§4) Thirty-six benzamides 1–4l were evaluated as potential inhibitors of AChE from electric eel (EeAChE) and BuChE from equine serum (EqBuChE) using Ellman’s spectrophotometric method modified according to Zdražilová et al.. Their efficacy is expressed as IC50, i.e., the concentration required for 50% inhibition of the enzymatic activity. Based on inhibition of both cholinesterases, we calculated selectivity indexes (SI) as the ratio of IC50 value for AChE/IC50 value for BuChE to express the selectivity quantitatively (Table 1).

[2] = biological target: T2, AChE (Electrophorus electricus, UniProt O42275); test: Type of inhibition, Lineweaver-Burk plot; type: biochemical, electric eel (Electrophorus electricus L.); conditions: ATCH 20–80 µM
T2 construct: Acetylcholinesterase was obtained from electric eel (Electrophorus electricus L.); purchased Sigma-Aldrich (Prague, Czech Republic); host or cells: electric eel (natural source)
Procedure: (§5) For the determination of the type of inhibition Lineweaver-Burk plot was used and the measuring procedure was similar to that for the determination of IC50 (modified Ellman’s method was used). The enzyme activity in the final reaction mixture (2000 µL) was 0.2 U/mL, a concentration of ATCH or BTCH 20–80 µM and a concentration of 5,5′-dithio-bis(2-nitrobenzoic acid) 0.1 mM. For each of the substrate concentrations, four different concentrations of inhibitor were chosen. The dependence absorbance vs. time was observed and the reaction rate was calculated. All measurements were carried in duplicate and the average values of reaction rate were used for the construction of the Lineweaver-Burk plot. From obtained equations of regression curves, the values of KM (Michaelis constant) and Vm (maximum velocity) were calculated and the type of inhibition was evaluated.
(§6) The type of inhibition could be distinguished based on the Lineweaver-Burk plot and the comparison of the kinetic parameters KM and Vm of uninhibited and inhibited reactions. The diagnostic criterion for competitive inhibition is that Vm is unaffected by inhibitor and KM for inhibited reaction is increased. All lines in Lineweaver-Burk plot share a common y-intercept. For non-competitive inhibitor KM is unchanged, but Vm of inhibited reaction is decreased. All lines in Lineweaver-Burk plot share a common x-intercept. […]

[3] = biological target: T3, butyrylcholinesterase (Equus caballus, UniProt P81908); test: Mechanism of inhibition, dependence log% A vs. time; type: biochemical, equine; conditions: inhibitor 3, 6, 9 µM; prolonged incubation
T3 construct: butyrylcholinesterase was from an equine serum; purchased Sigma-Aldrich (Prague, Czech Republic); host or cells: equine serum (natural source)
Procedure: (§7) The determination of mechanism of enzyme inhibition was described in detail previously. The inhibitor 5c was evaluated at three different concentrations for each enzyme.
(§8) Based on the changes of enzyme activity in the presence of tested inhibitor during prolonged incubation, it is possible to distinguish reversible, pseudo-irreversible and irreversible inhibition. In the case of reversible inhibition, the inhibitor is bound to the enzyme for a short period of time, the activity of the enzyme goes down immediately and, after dissociation of complex enzyme-inhibitor, the enzyme activity is restored. […] For irreversible inhibition, covalent and permanent bond between enzyme and inhibitor is typical and therefore the enzyme becomes inactivated. Irreversible inhibitor decreases enzyme activity successively and the dependence log% A vs. time in the presence of inhibitor is linear.
(§9) The procedure of measurement and data evaluation were in detail described previously in the reference. From the dependence log% A vs. time the mechanism of action of tested inhibitor can be deduced.
Figure 2 The dependence log% A vs. time. Enzyme: butyrylcholinesterase, derivative 5c, concentration of inhibitor: 3 µM (rhomb), 6 µM (square), 9 µM (triangle).

[4] = biological target: T4, BuChE (Equus caballus, UniProt P81908); test: Type of inhibition, Lineweaver-Burk plot; type: biochemical, equine; conditions: BTCH 20–80 µM
T4 construct: butyrylcholinesterase was from an equine serum; purchased Sigma-Aldrich (Prague, Czech Republic); host or cells: equine serum (natural source)
Procedure: as §5, §6

[5] = biological target: T5, acetylcholinesterase (Electrophorus electricus, UniProt O42275); test: Mechanism of inhibition, dependence log% A vs. time; type: biochemical, electric eel (Electrophorus electricus L.); conditions: inhibitor 10, 30, 90 µM; prolonged incubation
T5 construct: Acetylcholinesterase was obtained from electric eel (Electrophorus electricus L.); purchased Sigma-Aldrich (Prague, Czech Republic); host or cells: electric eel (natural source)
Procedure: as §7, §8, §9
Figure 1 The dependence log% A vs. time. Enzyme: acetylcholinesterase, derivative 5c, concentration of inhibitor: 10 µM (rhomb), 30 µM (square), 90 µM (triangle).

[6] = biological target: T6, BuChE from equine serum (EqBuChE) (Equus caballus, UniProt P81908); test: Inhibition of BuChE, modified Ellman's spectrophotometric method; type: biochemical; conditions: for Enhancement of BuChE inhibition compared to parent 3k: ratio of IC50 values vs parent 3k
T6 construct: butyrylcholinesterase was from an equine serum; purchased Sigma-Aldrich (Prague, Czech Republic); host or cells: equine serum (natural source)
Procedure: as §1, §2, §3, §4

[7] = biological target: T1, AChE from electric eel (EeAChE); conditions: SI = IC50 for AChE/IC50 for BuChE; cited from earlier work
[8] = biological target: T6, BuChE from equine serum (EqBuChE); conditions: mean ± SD; cited from earlier work

T6 sequence (P81908 whole entry): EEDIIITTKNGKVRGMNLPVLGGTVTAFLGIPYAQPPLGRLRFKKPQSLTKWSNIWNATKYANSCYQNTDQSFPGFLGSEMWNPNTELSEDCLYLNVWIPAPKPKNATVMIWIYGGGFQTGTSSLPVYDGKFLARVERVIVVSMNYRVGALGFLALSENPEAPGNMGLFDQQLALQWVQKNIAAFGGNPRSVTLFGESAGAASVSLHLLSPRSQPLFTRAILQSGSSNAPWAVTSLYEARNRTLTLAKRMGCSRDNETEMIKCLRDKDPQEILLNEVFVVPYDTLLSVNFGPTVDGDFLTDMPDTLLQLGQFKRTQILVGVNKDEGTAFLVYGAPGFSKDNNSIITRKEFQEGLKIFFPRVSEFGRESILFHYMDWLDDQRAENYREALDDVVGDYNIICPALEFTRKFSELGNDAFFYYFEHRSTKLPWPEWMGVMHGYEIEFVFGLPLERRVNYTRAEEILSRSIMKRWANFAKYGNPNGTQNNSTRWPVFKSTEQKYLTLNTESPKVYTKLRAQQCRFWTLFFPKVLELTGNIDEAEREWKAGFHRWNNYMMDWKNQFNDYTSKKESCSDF
T1 sequence (O42275 24-633): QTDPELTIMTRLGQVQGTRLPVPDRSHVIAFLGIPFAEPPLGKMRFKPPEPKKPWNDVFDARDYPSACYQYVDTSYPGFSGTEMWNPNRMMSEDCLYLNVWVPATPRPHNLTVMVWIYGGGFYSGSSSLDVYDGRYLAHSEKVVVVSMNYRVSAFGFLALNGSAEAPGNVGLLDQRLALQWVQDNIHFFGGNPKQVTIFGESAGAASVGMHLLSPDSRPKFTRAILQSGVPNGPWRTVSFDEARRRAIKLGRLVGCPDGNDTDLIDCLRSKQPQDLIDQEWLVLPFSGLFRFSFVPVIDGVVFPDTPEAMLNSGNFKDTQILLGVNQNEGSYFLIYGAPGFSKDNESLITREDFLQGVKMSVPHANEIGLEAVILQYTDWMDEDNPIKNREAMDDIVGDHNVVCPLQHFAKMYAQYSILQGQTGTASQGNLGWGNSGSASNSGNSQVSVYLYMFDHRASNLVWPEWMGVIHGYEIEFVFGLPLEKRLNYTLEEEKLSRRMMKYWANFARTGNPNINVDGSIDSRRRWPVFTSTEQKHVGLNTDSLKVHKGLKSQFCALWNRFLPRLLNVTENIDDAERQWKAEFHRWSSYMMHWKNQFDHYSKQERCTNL
T4 sequence (P81908 whole entry): as the sequence (P81908 whole entry) above
T3 sequence (P81908 whole entry): as above
T2 sequence (O42275 24-633): as the sequence (O42275 24-633) above
T5 sequence (O42275 24-633): as above

Row | Compound | Selectivity AChE/BuChE ([1]; SI = IC50 for AChE/IC50 for BuChE, SI lower than 1 means selectivity for AChE) | IC50 ([1]; mean ± SD, n = three experiments, read-out: IC50 (EeAChE)) [µM] | Type of inhibition (AChE) [2] | Mechanism of inhibition (BuChE) [3] | Type of inhibition (BuChE) [4] | Mechanism of inhibition (AChE) [5] | IC50 ([6]; mean ± SD, n = three experiments, read-out: IC50 (EqBuChE)) | Improvement of activity against BuChE compared to phosphate 5a ([6]; phosphite 5c vs phosphate 5a) [times] | Enhancement of BuChE inhibition compared to parent 3k [6] | Enhancement of AChE inhibition compared to parent 3k ([1]; ratio of IC50 values vs parent 3k) [times] | Selectivity AChE/BuChE [7] | IC50 [8] [µM]
1 | CCOP(OCC)Oc1cc(Cl)ccc1C(=O)Nc1ccc(C(F)(F)F)cc1 [Compound 5c, 5-Chloro-2-{[4-(trifluoromethyl)phenyl]carbamoyl}phenyl diethyl phosphite] | 28.00 | 66.4 ± 1.14 | mixed inhibition; also recorded: mixed inhibitory mechanism | pseudo-irreversible inhibitor; also recorded: pseudo-irreversible inhibition | mixed inhibition; also recorded: mixed inhibitory mechanism | pseudo-irreversible inhibitor; also recorded: pseudo-irreversible inhibition | 2.4 µM and 2.37 µM | 4.2 | 84.2 times | – | – | –
2 | CCOP(=S)(OCC)Oc1cc(Cl)ccc1C(=O)Nc1ccc(C(F)(F)F)cc1 [Compound 5b] | – | – | – | – | – | – | – | – | up to 20.3 times | 6.6 | 0.50 | –
3 | CCOP(=O)(OCC)Oc1cc(Cl)ccc1C(=O)Nc1ccc(C(F)(F)F)cc1 [Compound 5a] | – | – | – | – | – | – | – | – | up to 20.3 times | – | 8.77 | 9.84 ± 0.06
